Data on 10 compounds can be found in ChEMBL document CHEMBL1201862, “PubChem BioAssay data set” (2004).

The structures appear in SMILES notation.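 Five compound concentrations were applied to cells in 96-well plates for 48 hours; endpoints were derived by simple linear interpolation of the resulting dose-response curve. GI50 = concentration required for 50% inhibition of growth.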 Active and inactive are the calls of the source. Rule as the data show it: active = GI50 up to about 1.1 µM and inactive = higher.

Some test systems named below: A549; COLO 205; DLD-1; EKVX; HCT-15; IGROV-1; K562; KM12; M19-MEL; NCI-H226; NCI-H460; OVCAR-4; RXF 393; SF-295; SF-539; UACC-62; RPMI-8226.
Test in all cases: NCI-60 cell line screen, 48 h

`Cc1cc(NS(=O)(=O)c2ccc(Nc3c4ccccc4nc4c(C(=O)NCCN(C)C)cccc34)cc2)no1`: the GI50 was 3.29 µM (inactive) with A549; 6.12 µM (inactive) with COLO 205; 11.8 µM (inactive) in the assay with DLD-1; 5.09 µM (inactive) in the assay on EKVX; 18.5 µM in the assay on HCT-15; 2.37 µM (inactive) in the assay with IGROV-1. The GI50 in the assay on K562 was 2.69 µM (inactive); in the assay on KM12 it was 9.25 µM (inactive); in the assay on M19-MEL, 12.5 µM (inactive); in the assay on NCI-H226 it was 0.524 µM (active); in the assay with NCI-H460 it was 0.685 µM (active); with OVCAR-4 it was 10.7 µM (inactive). Besides, the GI50 in the assay on RXF 393 was 5.6 µM (inactive); in the assay with SF-295 it was 8.38 µM (inactive); with SF-539 it was 2.12 µM (inactive); in the assay on UACC-62, 2.55 µM (inactive).
`O=C1c2ccccc2C(=O)N1CCN(CCN1C(=O)c2ccccc2C1=O)Cn1cccn1`: the GI50 with A549 was > 100 µM (inactive); in the assay on COLO 205, > 100 µM (inactive); with DLD-1 it was 31.9 µM (inactive); in the assay with EKVX, > 100 µM (inactive); in the assay with HCT-15, > 100 µM; with K562, 33.4 µM (inactive). In addition, the GI50 in the assay on KM12 is > 100 µM (inactive); in the assay on M19-MEL, 69.8 µM (inactive); in the assay with NCI-H460 it was 84.3 µM (inactive); in the assay on OVCAR-4, > 100 µM (inactive); in the assay on RPMI-8226, 29.2 µM (inactive); with RXF 393 it was > 100 µM (inactive). Besides, the GI50 was > 100 µM (inactive) with SF-295 and 28.2 µM (inactive) in the assay with UACC-62.
For the compound `Oc1nc(CC(O)c2ccc(Cl)c(Cl)c2)cc(-c2ccccc2)n1` (centres undefined), the GI50 in the assay with A549 was 27.1 µM (inactive); in the assay on COLO 205 it was 17.3 µM (inactive); with DLD-1 it was > 100 µM (inactive); in the assay on EKVX it was 44.9 µM (inactive); in the assay on HCT-15 it was 89.1 µM; with IGROV-1, > 100 µM (inactive). Also, the GI50 was 51.3 µM (inactive) with K562; 69.3 µM (inactive) with KM12; 44.3 µM (inactive) in the assay with M19-MEL; 55.8 µM (inactive) with NCI-H226; 94.8 µM (inactive) with NCI-H460; 68.4 µM (inactive) with OVCAR-4. Also, the GI50 in the assay on RXF 393 was 41.1 µM (inactive); in the assay with SF-295 it was 53.7 µM (inactive); in the assay with SF-539, > 100 µM (inactive); in the assay on UACC-62 it was 45.5 µM (inactive).
As to `N#Cc1ccccc1C(Cl)(Cl)c1cnccn1`, the GI50 with A549 is 83.9 µM (inactive); with COLO 205, 46.9 µM (inactive); in the assay on DLD-1 it was 47.3 µM (inactive); with EKVX it was 40 µM (inactive); with IGROV-1, 44.1 µM (inactive); in the assay on K562, 34.3 µM (inactive). Further, the GI50 was 37.8 µM (inactive) in the assay on KM12; 54.1 µM (inactive) with M19-MEL; 36.6 µM (inactive) in the assay with NCI-H226; 47.4 µM (inactive) in the assay on NCI-H460; > 100 µM (inactive) in the assay with OVCAR-4; 26.4 µM (inactive) in the assay with RXF 393. For the same compound, the GI50 in the assay on SF-295 is 47 µM (inactive); in the assay with SF-539, 32.4 µM (inactive); in the assay with UACC-62, 30.5 µM (inactive).
On to `COC(=O)c1ccc2n[se]nc2c1`, for which the GI50 was > 100 µM (inactive) in the assay with A549; > 100 µM (inactive) in the assay on DLD-1; 71 µM (inactive) in the assay on EKVX; > 100 µM in the assay with HCT-15; > 100 µM (inactive) in the assay on IGROV-1; > 100 µM (inactive) with K562. Further, the GI50 with KM12, with M19-MEL, in the assay with NCI-H460, in the assay with OVCAR-4, with RPMI-8226 and in the assay with RXF 393 was > 100 µM (inactive) each time. For the same compound, the GI50 in the assay on SF-295, with SF-539 and in the assay with UACC-62 was > 100 µM (inactive) each time.
On to `CC1C=C[C@H](Sc2ccccc2)CC[C@@]1(C)O` (some centres undefined), for which the GI50 with A549 was > 100 µM (inactive); with COLO 205, > 100 µM (inactive); with DLD-1 it was > 100 µM (inactive); in the assay with EKVX, > 100 µM (inactive); in the assay on HCT-15 it was > 100 µM; in the assay on IGROV-1, > 100 µM (inactive). Also, the GI50 in the assay on K562 was 67.5 µM (inactive); in the assay on M19-MEL, > 100 µM (inactive); in the assay on NCI-H226 it was > 100 µM (inactive); in the assay on NCI-H460, > 100 µM (inactive); in the assay on RPMI-8226 it was 57.3 µM (inactive); in the assay with RXF 393, 76.2 µM (inactive). Also, the GI50 is > 100 µM (inactive) with SF-539 and 86.1 µM (inactive) in the assay with UACC-62.
As to `COC(=O)C1[C@@H](C(=O)OC)C12C=Cc1ccccc1C=C2` (some centres undefined), the GI50 with A549 is > 100 µM (inactive); in the assay on COLO 205, > 100 µM (inactive); with DLD-1, > 100 µM (inactive); in the assay on EKVX, > 100 µM (inactive); in the assay with HCT-15 it was > 100 µM; in the assay with IGROV-1 it was > 100 µM (inactive). Further, the GI50 with K562, in the assay on KM12, in the assay on M19-MEL, in the assay with NCI-H460, with RPMI-8226 and with RXF 393 was > 100 µM (inactive) throughout. Also, the GI50 in the assay on SF-295, in the assay with SF-539 and with UACC-62 was > 100 µM (inactive) in each case.
On to `CCN1CCC(O)(/C=C/c2ccccc2)C(C(=O)/C=C/c2ccccc2)C1` (centres undefined), for which the GI50 in the assay with A549 is 4.86 µM (inactive); in the assay on COLO 205 it was 1.77 µM (inactive); in the assay on DLD-1, 2.08 µM (inactive); in the assay with EKVX, 3.33 µM (inactive); with HCT-15, 1.87 µM; in the assay on IGROV-1, 1.85 µM (inactive). In addition, the GI50 in the assay with KM12 is 1.8 µM (inactive); in the assay on M19-MEL, 1.99 µM (inactive); in the assay on NCI-H226 it was 3.02 µM (inactive); with NCI-H460, 1.95 µM (inactive); in the assay on OVCAR-4 it was 3.27 µM (inactive); in the assay on RXF 393 it was 1.67 µM (inactive). Besides, the GI50 with SF-295 was 2.96 µM (inactive); with SF-539, 1.91 µM (inactive); in the assay with UACC-62, 1.71 µM (inactive).
For `COC(=O)C1=C(C)N(NC(=O)Nc2ccccc2)C2(N)N(NC(=O)Nc3ccccc3)C(C)=C(C(=O)OC)C12C(=O)OC` (centres undefined), the GI50 was > 100 µM (inactive) with A549; 34.7 µM (inactive) with COLO 205; 55.7 µM (inactive) in the assay with DLD-1; 76.4 µM in the assay on HCT-15; 24.5 µM (inactive) with IGROV-1; 51.9 µM (inactive) in the assay with K562. For the same compound, the GI50 in the assay on M19-MEL was 25.1 µM (inactive); in the assay with NCI-H226 it was 60.4 µM (inactive); in the assay on NCI-H460, 38.3 µM (inactive); with OVCAR-4, 64.9 µM (inactive); in the assay on RPMI-8226 it was 26.8 µM (inactive); with RXF 393 it was 75.9 µM (inactive). For the same compound, the GI50 with UACC-62 was 41.3 µM (inactive).
Take `O=C1NC(=O)C(C(=O)C(=O)Nc2cc(Cl)ccc2Cl)C(=O)N1`: the GI50 with A549 was > 100 µM (inactive); in the assay on COLO 205 it was > 100 µM (inactive); in the assay with DLD-1, > 100 µM (inactive); in the assay with EKVX, > 100 µM (inactive); in the assay with HCT-15 it was > 100 µM; in the assay with IGROV-1 it was > 100 µM (inactive). Moreover, the GI50 with K562, in the assay with KM12, in the assay on M19-MEL, in the assay on NCI-H460, in the assay with OVCAR-4 and in the assay with RPMI-8226 was > 100 µM (inactive) in each case. In addition, the GI50 with RXF 393, in the assay with SF-295, in the assay on SF-539 and in the assay on UACC-62 was > 100 µM (inactive) in each case.
